This is an account of results in PMC4269550, “Lead Optimization of a Pyrazole Sulfonamide Series of Trypanosoma bruceiN-Myristoyltransferase Inhibitors: Identification and Evaluation of CNS Penetrant Compounds as Potential Treatments for Stage 2 Human African Trypanosomiasis” (Journal of Medicinal Chemistry, 2014).

Series [1] can be described thus: Intrinsic clearance (Cli), mouse liver microsomes. It counts as in vitro ADME. The note with it: for Cli: mouse microsomes.
A short description of series [2]: In vitro metabolite identification with mouse microsomes. The class given is in vitro ADME. The note with it: for % Parent remaining (t = 15 min): 5µM, 15 min at 37°C, mouse liver microsomes; for sulfonamide N-dealkylation on incubation with mouse microsomes: words. On the technique in general: Liver microsomes are a subcellular fraction often used to study metabolism.

Series [3] can be described thus: Rat hepatic portal vein study. The note with it: male Sprague–Dawley rat, 3 mg/kg orally. The class given is in vivo. How it is done: aIC50 values are shown as mean values of two or more determinations. bCompounds with Hill slopes […]
Rat hepatic portal vein study protocol.
10mL/kg; Dose vehicle: 5% DMSO; 40% PEG400; 55% distilled water) to male Sprague-Dawley rats (n=7). A single rat was placed under terminal anaesthesia with isofluorane at 15 and 30 minutes, 1, 2, 4, 6 and 8 hours post-dose and a blood sample taken from the hepatic portal vein and the heart, each mixed with two volumes of distilled water. After suitable sample preparation, the concentration of compound 33 in all blood samples was determined by UPLC/MS/MS using a Quattro Premier XE (Waters, USA). The hepatic portal vein and cardiac blood concentration time profile is presented in Figure S2. Pharmacokinetic parameters were derived from the blood concentration time profiles using PKsolutions software v 2.0 (Summit Research Services, USA).

Series [4] has as its system T. b. brucei, BSF427, VSG118. Nature of the series: Cell viability assay, trypanosome. The class given is cell-based. The settings on record: for ~EC99: T. brucei.
Series [5] is described as follows: Maximum tolerated dose in mice. The settings on record: mouse, in vivo.
In a further series the test system is T. b. brucei S427. Nature of the series: Stage 1 HAT mouse efficacy model, T. b. brucei S427. It counts as in vivo. The note with it: for Activity in stage 1 mouse model: T. b. brucei S427, 50 mg/kg b.i.d. po for 4 days; for stage 1 HAT minimal curative dose, T. b. brucei S427: b.i.d. po, mouse.
In series [6] the test system is T. b. brucei GVR35. The class given is in vivo. The settings on record: for toxicity in infected mice in stage 2 model: dosed at the MTD b.i.d. po for 5 days, mice affected. An excerpt: NMRI mice used in the experiment were purchased from Harlan, UK. Mice were maintained under standard temperature/lighting conditions and given food and water ad libitum. The trypanosomes used in this study were of the cloned stabilate T. b. brucei GVR35, originally derived from trypanosomes isolated from a wildebeest in the Serengeti in 1966.[31] By 13 days postinfection, parasites entered the CNS.[32] If treatment is delayed until 21 days after infection, successful cure is therefore dependent on the ability of the compound to penetrate through the blood–brain barrier.[33] This model is widely used to evaluate the efficacy of new compounds for treatment against stage 2 HAT.[34]
Cryopreserved T. b. brucei GVR35 trypomastigotes were diluted to ∼5 × 10^4 cells/mL in 20 mM Hanks Balanced Salt Solution with glucose, and 0.2 mL of that dilution was used for infection (∼1 × 10^4 cells/mL per animal). All animals in the groups were intraperitoneally infected (ip) on day 0. After infection, parasitaemia was monitored by examination of tail blood smears. On day 21, post infection animals were randomly allocated to five mice per group. Infected animals were dosed with one of the following: diaminazene diaceturate (ip), 40 mg/kg once only as a HAT stage 1 control (early stage tyrypanocide to clear the parasites in the systemic circulation and in tissues other than CNS); Melasoprol (ip), 10 mg/kg once daily for 5 days as a positive control for HAT stage 2; […]. One group of five mice was an untreated control group. The dose solutions were prepared daily, using 5% DMSO:40% PEG400:55% Milli-Q water for compound (i.e., 40) and 10% DMSO:90% peanut oil for control drugs. To measure the response to treatment, parasitaemia was monitored twice per week until day 50. After day 50, the mice were checked only once per week until day 180 post treatment. Mice surviving to the end of experiment and blood smear aparasitaemic were considered cured.

The next series in a line: Mouse pharmacokinetics. The class given is in vivo. The note with it: for Cmax / AUC(0-t): female, NMRI, whole blood, mouse; for Cmax: oral dose 50mg/kg; for AUC(0-t): 10 mg/kg po, read-out: AUC0–8 (converted). As to the method:
Test compound was dosed as a bolus solution intravenously at 3 mg free base/kg (dose volume, 5 mL/kg; dose vehicle, saline or 5% DMSO; 40% PEG400; 55% saline) to female NMRI mice (n = 3) or dosed orally by gavage as a solution at 10 and/or 50 mg free base/kg (dose volume, 5 mL/kg; dose vehicle, 5% DMSO; 95% distilled water or 5% DMSO; 40% PEG400; 55% distilled water) to female NMRI mice (n = 3/dose level). Female NMRI mice were chosen as these represent the sex and strain used for the stage 1 and stage 2 HAT efficacy models. Blood samples were taken from each mouse at 2 (IV only), 5 (IV only), 15, and 30 min, 1, 2, 4, 6, 8, and 24 (po only) hours postdose and mixed with two volumes of distilled water. After suitable sample preparation, the concentration of test compound in blood was determined by UPLC-MS/MS using a Quattro Premier XE (Waters, USA). Pharmacokinetic parameters were derived from the mean blood concentration time curve using PKsolutions software v 2.0 (Summit Research Services, USA).

The nature of series [7]: Dose calculations for in vivo efficacy studies (brain concentration, brain free fraction). The note with it: for oral dose needed to deliver stage 2 cures (Dose required): b.i.d., calculated to keep brain free concentration above T. brucei EC99. How it is done: isofluorane. A blood sample was taken by cardiac puncture into two volumes of distilled water and the brain removed. After suitable sample preparation, the concentration of 1 in blood and brain was determined by UPLC/MS/MS using a Quattro Premier XE (Waters, USA). For each rat, the concentration in brain (ng/g) was divided by the concentration in blood (ng/mL) to give a brain:blood (B:B) ratio. The mean value obtained was quoted. A higher B:B ratio in animals pre-treated with GF120918 is indicative of a Pgp substrate.
Dose calculations for in vivo efficacy studies.
Property Compound 40 Compound 46 Compound 42
Oral Dose 50mg/kg 50mg/kg 50mg/kg

The nature of another series: in vitro. It counts as cell-based, human. The note with it: human; read-out: MRC-5 EC50.
A further series is described as follows: Mouse brain penetration. It counts as in vivo. The settings on record: female, NMRI, brain and blood, intravenous, 2 mg free base/kg, read-out: B:B (brain:blood ratio in mouse).
Series [8] has as its system T. b. rhodesiense STIB900. The series is described as follows: Stage 1 HAT mouse efficacy model, T. b. rhodesiense STIB900. It counts as in vivo. The settings on record: b.i.d. po for 4 days.
A further series deals with P-glycoprotein. The series is described as follows: Rat brain penetration study +/- GF120918. The settings on record: in vivo.
The subject of series [9] is T. b. brucei GVR35. Nature of the series: Acute mouse model of T. b. brucei GVR35. The class given is in vivo.

“And” between values parts separate entries of the source, which are not always exact repeats. Equal values may be shown once. Read-outs that look alike come from different tables or passages of the source. Bounds are passed on as bounds.

Take `Cc1nn(C)c(C)c1N(C)S(=O)(=O)c1c(Cl)cc(CCCN2CCN(C)CC2)cc1Cl` [compound 33]: in [1] (mouse liver microsomes), the “Cli (mouse)” value worked out at 7.4 mL min^–1 g^–1. Further, the Cli in [1] was 7.4 mL/min/g. Besides, in series [2], the “% Parent remaining (t = 15 min)” value was found to be 6% and the “sulfonamide N-dealkylation on incubation with mouse microsomes” value is given as “N-dealkylated sulfonamide as the predominant metabolite”. The “hepatic extraction of the parent” value in series [3] was “almost total hepatic extraction”.

As usually defined, the MTD is the largest dose that counted as tolerated. A higher MTD goes with better tolerability. By Cmax is commonly meant the peak of the concentration-time curve. As a reminder, the fraction unbound is free concentration divided by total concentration. As to `Cc1nn(C)c(C)c1N(C(F)F)S(=O)(=O)c1c(Cl)cc(CCCC2CCN(C)CC2)cc1Cl` [compound 40, 2,6-Dichloro-N-(difluoromethyl)-4-(3-(1-methylpiperidin-4-yl)propyl)-N-(1,3,5-trimethyl-1H-pyrazol-4-yl)benzenesulfonamide], the “~EC99” value in [4] is […]. This compound gave an MTD at 1 day in [5] (po) of 100 mg/kg. In series [2], the “% Parent remaining (t = 15 min)” value is 67% and the “sulfonamide N-dealkylation on incubation with mouse microsomes” value is listed as “did not undergo sulfonamide N-dealkylation”. Moreover, the “Activity in stage 1 mouse model” value in the series with T. b. brucei S427 is “fully curative”. For the same compound, in the series with T. b. brucei GVR35 [6], the “toxicity in infected mice in stage 2 model” value (from here on “toxicity in infected mice”) was 1/5. The “efficacy in stage 2 model (mice cured)” value in the series with T. b. brucei GVR35 [6] (the two 100 mg/kg extended dosing schedules (8 days; 3 x 3 days pulsed)) is 1/5. The “efficacy in a stage 2 (CNS) mouse model of HAT” value in the series on T. b. brucei GVR35 [6] (words) is “partial efficacy”. This compound showed a Cmax in the series “Mouse pharmacokinetics” of 661 ng/mL. In addition, in the series “Mouse pharmacokinetics” (words), the “oral exposure in mouse” value is “good oral exposure”. Further, in series [7], the “oral dose needed to deliver stage 2 cures (Dose required)” value (“oral dose needed” below) is recorded as 20 mg/kg. For the same compound, the fraction unbound in series [7] (mouse, in vivo) was 0.019. Further, in series [7] (oral dose 50mg/kg), the Conc in brain is reported as 1031 ng/g and the Free brain conc is recorded as 19.6 ng/g.

With `Cc1nn(C)c(C)c1N(CC(F)(F)F)[S+](=O)([O-])c1c(Cl)cc(CCCC2CCN(C)CC2)cc1Cl` [compound 42], the “~EC99” value in series [4] was ~56 nM and ~31 ng/mL. This compound also registered an MTD at 1 day in series [5] above 200 mg/kg. In addition, the “Cli (mouse)” value in series [1] (mouse liver microsomes) was found to be 1.1 mL min^–1 g^–1. Moreover, in [1], the Cli was 1.1 mL/min/g. The “Activity in stage 1 mouse model” value with T. b. brucei S427 is “fully curative”. Also, in the series on T. b. brucei GVR35 [6] (T. b. brucei GVR35, 150 mg/kg b.i.d. po for 5 days), the “cures in stage 2 model” value is recorded as “none of the mice were cured”. In the series on T. b. brucei GVR35 [6], the “toxicity in infected mice” value is reported as “well tolerated”. The Cmax in the series “Mouse pharmacokinetics” worked out at 876 ng/mL. Besides, the concentration at 8 h in series [7] (NMRI, mouse, in vivo, oral dose 50mg/kg, read-out: Free brain conc at 8 hours post-dose) was 6.2 ng/g. Further, in [7], the “oral dose needed” value is listed as 250 mg/kg. The fraction unbound in [7] (mouse, in vivo) was 0.032. Besides, in series [7] (oral dose 50mg/kg), the Conc in brain is 569 ng/g and the Free brain conc was 18.2 ng/g.

As usually defined, the EC50 is the midpoint of the concentration-response curve. For the compound `Cc1nn(C)c(C)c1NS(=O)(=O)c1ccc(-c2ccnc(N3CCNCC3)c2)cc1` [compound 55], the EC50 in series [4] (Trypanosoma brucei) was determined as 4 nM; in “in vitro” it was 1400 nM. Moreover, the Kp in “Mouse brain penetration” was determined as 0.1.

On to `Cc1nn(C)c(C)c1NS(=O)(=O)c1c(Cl)cc(-c2ccnc(N3CCNCC3)c2)cc1Cl` [compound 1, 2,6-Dichloro-4-(2-piperazin-1-yl-pyridin-4-yl)-N-(1,3,5-trimethyl-1H-pyrazol-4-yl)-benzenesulfonamide], for which the “Cli (mouse)” value is 0.6 in series [1] (Table S1, unit not given) and below 1.0 mL min^–1 g^–1 in [1] (mouse liver microsomes). In addition, in the series on T. b. brucei S427, the “stage 1 HAT minimal curative dose, T. b. brucei S427” value was found to be 12.5 mg/kg. The “stage 1 HAT minimal curative dose, T. b. rhodesiense STIB900” value in series [8] was 50 mg/kg. In addition, the AUC(0-t) in the series “Mouse pharmacokinetics” was 6530 ng·h/mL. For the same compound, the P-glycoprotein substrate result in the series with P-glycoprotein is “substrate for P-glycoprotein”.

Consider `Cc1nn(C)c(C)c1N(C(F)F)S(=O)(=O)c1c(Cl)cc(CCCCC2CCN(C)CC2)cc1Cl` [compound 46], for which the “~EC99” value in series [4] is ~2 nM and ~1.1 ng/mL. The compound also showed an MTD at 1 day in series [5] (po) of 50 mg/kg. Also, in the series with T. b. brucei S427, the “stage 1 HAT minimal curative dose, T. b. brucei S427” value is listed as 6 mg/kg. The “minimum curative dose, acute model of T. b. brucei GVR35” value with T. b. brucei GVR35 [9] (b.i.d. po for 4 days) was 25 mg/kg. Moreover, in the series with T. b. brucei GVR35 [9] (in vivo), the “reduction in efficacy, T. b. brucei GVR35 compared to S427” value is reported as around 4 fold. For the same compound, in the series with T. b. brucei GVR35 [6], the “toxicity in infected mice” value was 2/5. In the series on T. b. brucei GVR35 [6] (extended 50 mg/kg dose regimen), the “toxicity in stage 2 model” value is listed as “significant toxicity”. In the series with T. b. brucei GVR35 [6] (extended regimens: 25 mg/kg b.i.d. for 10 days, 50 mg/kg b.i.d. po for 8 days), the “cures in stage 2 model” value is given as “no cures”. The compound also gave a Cmax in the series “Mouse pharmacokinetics” of 708 ng/mL. Also, in series [7], the “oral dose needed” value is listed as 15 mg/kg. Also, the fraction unbound in [7] (mouse, in vivo) is 0.01. Besides, in [7] (oral dose 50mg/kg), the Conc in brain is 935 ng/g and the Free brain conc is on record as 9.4 ng/g.

`Cc1c(NS(=O)(=O)c2c(Cl)cc(-c3ccnc(N4CCNCC4)c3)cc2Cl)c(CC(C)C)nn1C` [compound 6]: the MTD in [5] (po) was found to be 20 mg/kg. The “stage 1 HAT minimal curative dose, T. b. rhodesiense STIB900” value in series [8] was found to be 6 mg/kg. In addition, the AUC(0-t) in the series “Mouse pharmacokinetics” was 56700 ng·h/mL.
